# US20170121687A1, “METHODS OF CELLULAR REPROGRAMMING” (Agency for Science, Technology and Research, priority 2014, published 2017)
# Tested on: IMR90
# Assay: Integrin ligation step with other extracellular matrices and growth factors after antibody induction
# Format: cell-based, human
# Conditions: FIG. 12-15
# Protocol: Cells were detached using conventional cell culture techniques and 60000 suspended cells in 100 μL media were incubated with 2 μg of each of the following antibodies—Anti-Integrin alpha V [272-17E6] (Abcam, USA), Anti-Integrin alpha 5 [P1D6]—Azide free (Abcam, USA), Anti-Integrin beta 3 antibody [25E11], Anti-Integrin αV/β5 (P1F6) L (Santa Cruz Biotechnology, USA), Anti-Integrin αVβ6, clone 10D5 (Merck, USA)—for 30 minutes in a 37° C. incubator. Control antibody used was normal mouse IgG1 antibody (Santa Cruz Biotechnology, USA). The volume of the cell suspension was brought up to 250 μL for subsequent seeding in a 48-well tissue culture plate. Two days after antibody treatment, extracellular matrix was added into the media. Reprogramming of U251 cells followed a modified procedure, where a 3-antibody combination comprising Anti-Integrins αv, αvβ5 and αvβ6 was used. Two days after antibody treatment, the cells were transferred to ECM that had been pre-coated onto the culture wells. Extracellular matrices used are basement membrane matrix, Geltrex (Life Technologies, USA), laminin 332 and laminin 511 (Biolamina, Sweden). One day after addition of extracellular matrix, the media was changed to one of the following growth factors-supplemented media—1) SKP media made up of DMEM/F12 (Life Technologies, USA) supplemented with 1× B27 supplement (Life Technologies, USA), 40 ng/mL bFGF, 20 ng/mL EGF (Life Technologies, USA); 2) mTESR2 (Stemcell Technologies, USA).
# Cells were lysed for RNA using TRIzol® Reagent (Invitrogen, USA) following manufacturer's instructions. Purified RNA was reverse transcribed into cDNA using iScript™ cDNA synthesis kit (Bio-Rad, USA). The reaction was carried out in a 20 μL volume containing 4 μL 5× iScript reaction mix, 1 μL iScript reverse transcriptase, RNA template (≦1000 ng total RNA) and nuclease free water (variable). The complete reaction mix was incubated for at 5 minutes at 25° C., 30 minutes at 42° C., 5 minutes at 85° C. followed by holding at 4° C. (optional).
# Reaction was performed on iQ5 multi-colour real-time PCR detection system (Bio-Rad, USA) using the iTaq™ Universal SYBR® Green supermix (Bio-Rad, USA). The 20 μL volume reaction component includes 10 μL iTaq™ Universal SYBR® Green supermix, 1 μL of primer mix (5 μM forward primer, 5 μM reverse primer), 1 to 100 ng template and nuclease free water (variable).
# The reaction conditions were as follows: 30 sec at 95° C., followed by 40 cycles of 15 sec at 95° C. and 30 sec at 60° C. […] Relative quantization of target mRNA expression, normalized to an endogenous control and relative to a calibrator, was calculated using the mathematical expression for fold change 2-ΔΔCt (fold change).
row,Molecule,expression of MET and stemness markers
1,"Laminin 511: extracellular matrix (Biolamina, Sweden) used during the integrin ligation step",positively influenced
2,HGF: hepatocyte growth factor,reduced expression of both MET and stemness markers
3,Laminin 521: extracellular matrix used during the integrin ligation step,positively influenced
4,"KGF: keratinocyte growth factor (protein, UniProt P21781 32-194, looked up) Fibroblast growth factor 7: CNDMTPEQMATNVNCSSPERHTRSYDYMEGGDIRVRRLFCRTQWYLRIDKRGKVKGTQEMKNNYNIMEIRTVAVGIVAIKGVESEFYLAMNKEGKLYAKKECNEDCNFKELILENHYNTYASAKWTHNGGEMFVALNQKGIPVRGKKTKKEQKTAHFLPMAIT",did not appear to significantly affect
